Measurements from patent US10035801B2, “Pyrazolo compounds and uses thereof” (CONSTELLATION PHARMACEUTICALS, INC., priority 2013, dated 2018).
Where two headings read alike, the source gives them in different places.

Target: T1, KDM5A (Homo sapiens, UniProt P29375)
T1 construct: Full length KDM5A enzyme was expressed and purified inhouse; made in house
Test: KDM5 enzyme assay, KDM5A HTRF (Example 463)
Format: biochemical

[1] = compounds of Examples 1-432, read-out: Example 463 Assay KDM5A HTRF IC50

T1 sequence (P29375 whole entry): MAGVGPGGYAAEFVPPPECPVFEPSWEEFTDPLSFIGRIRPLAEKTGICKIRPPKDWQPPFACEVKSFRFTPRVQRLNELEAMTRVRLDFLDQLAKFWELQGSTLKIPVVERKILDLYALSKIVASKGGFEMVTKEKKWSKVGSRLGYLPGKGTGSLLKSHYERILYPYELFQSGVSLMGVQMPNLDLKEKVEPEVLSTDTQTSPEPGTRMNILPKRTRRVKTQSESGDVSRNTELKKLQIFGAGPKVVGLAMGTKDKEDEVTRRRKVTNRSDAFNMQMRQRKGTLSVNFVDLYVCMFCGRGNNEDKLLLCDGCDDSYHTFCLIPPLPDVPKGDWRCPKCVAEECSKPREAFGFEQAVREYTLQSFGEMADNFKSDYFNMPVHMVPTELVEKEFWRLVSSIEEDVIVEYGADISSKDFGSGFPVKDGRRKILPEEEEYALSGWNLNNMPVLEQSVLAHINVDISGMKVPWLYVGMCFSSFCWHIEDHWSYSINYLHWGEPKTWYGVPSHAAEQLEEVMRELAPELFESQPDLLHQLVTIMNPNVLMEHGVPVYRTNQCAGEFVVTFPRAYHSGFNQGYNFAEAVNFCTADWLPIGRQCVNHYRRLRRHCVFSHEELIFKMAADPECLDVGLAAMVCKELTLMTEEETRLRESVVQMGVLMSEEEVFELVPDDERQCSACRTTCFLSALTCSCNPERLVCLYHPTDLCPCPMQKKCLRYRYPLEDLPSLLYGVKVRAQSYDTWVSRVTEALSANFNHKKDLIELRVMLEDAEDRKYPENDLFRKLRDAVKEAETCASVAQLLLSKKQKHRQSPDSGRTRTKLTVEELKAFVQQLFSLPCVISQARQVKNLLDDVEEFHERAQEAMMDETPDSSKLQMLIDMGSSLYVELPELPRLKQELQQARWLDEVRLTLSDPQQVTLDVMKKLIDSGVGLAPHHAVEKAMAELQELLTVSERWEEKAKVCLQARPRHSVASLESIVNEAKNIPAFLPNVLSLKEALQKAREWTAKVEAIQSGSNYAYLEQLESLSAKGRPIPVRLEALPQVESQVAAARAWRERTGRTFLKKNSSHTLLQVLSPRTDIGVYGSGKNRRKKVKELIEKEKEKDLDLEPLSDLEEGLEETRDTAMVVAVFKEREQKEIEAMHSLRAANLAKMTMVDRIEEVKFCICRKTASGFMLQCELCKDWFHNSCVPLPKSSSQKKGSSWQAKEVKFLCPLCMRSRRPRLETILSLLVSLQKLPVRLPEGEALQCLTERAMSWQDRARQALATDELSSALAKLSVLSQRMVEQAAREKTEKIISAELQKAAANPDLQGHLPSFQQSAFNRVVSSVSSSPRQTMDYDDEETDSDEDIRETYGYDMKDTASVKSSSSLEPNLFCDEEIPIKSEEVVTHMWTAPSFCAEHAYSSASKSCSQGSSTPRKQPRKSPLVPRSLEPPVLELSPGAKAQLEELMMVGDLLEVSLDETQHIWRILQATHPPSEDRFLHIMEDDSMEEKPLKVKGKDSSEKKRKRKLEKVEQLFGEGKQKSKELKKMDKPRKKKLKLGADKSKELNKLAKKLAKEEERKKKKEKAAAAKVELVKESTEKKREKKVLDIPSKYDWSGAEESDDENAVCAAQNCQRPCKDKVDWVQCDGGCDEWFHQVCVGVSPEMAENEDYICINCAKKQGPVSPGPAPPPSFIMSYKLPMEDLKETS
Procedure: Full length KDM5A enzyme was expressed and purified inhouse. Biotin-H3K4me3 peptide was purchased from New England Biolabs. HTRF reagents (containing Eu-labeled H3K4me1-2 antibody, and streptavidin-XL665) were purchased from Cis-Bio International. Plates were read on an Envision multi-label plate reader Perkin Elmer).
The HTRF assay mixture contained 2 nM full length KDM5A enzyme, 100 nM H3K4Me3 peptide substrate, 1 uM 2-OG, 100 uM Fe^2+, 500 uM ascorbate. 50 mM HEPES pH 7.0 buffer, 0.01% Triton-X 100, 2 mM DTT. […] The plates were incubated at room temperature for 60 minutes and then read in the Envision plate reader.

Row | Compound | IC50 [1] [nM] | IC50 [nM]
1 | Cc1cc(-c2[nH]c3c(C#N)cnn3c(=O)c2C(C)C)ccc1OC(F)(F)F [Example 258] | 44 | –
2 | CC(C)c1c(-c2ccc(C3CC3)c(C(F)(F)F)c2)[nH]c2c(C#N)cnn2c1=O [Example 259] | 43 | –
3 | CC(C)c1c(-c2ccc3c(c2)CC(C)(C)O3)[nH]c2c(C#N)cnn2c1=O [Example 260] | 36 | –
4 | COc1cc(OC)cc(-c2[nH]c3c(C#N)cnn3c(=O)c2C(C)C)c1 [Example 261] | 31 | –
5 | CC(C)c1c(-c2ccc(F)c(F)c2)[nH]c2c(C#N)cnn2c1=O [Example 262] | 21 | –
6 | CC(C)c1c(-c2ccc(-c3ccccc3)cc2)[nH]c2c(C#N)cnn2c1=O [Example 263] | 28 | –
7 | CC(C)c1c(-c2cc(F)cc(Cl)c2)[nH]c2c(C#N)cnn2c1=O [Example 264] | 21 | –
8 | CC(C)c1c(-c2cc(C(F)(F)F)cc(C(F)(F)F)c2)[nH]c2c(C#N)cnn2c1=O [Example 265] | 40 | –
9 | COc1cc(F)cc(-c2[nH]c3c(C#N)cnn3c(=O)c2C(C)C)c1 [Example 266] | 29 | –
10 | CC(C)c1c(-c2cccc(C(N)=O)c2)[nH]c2c(C#N)cnn2c1=O [Example 267] | 9.8 | –
11 | CC(C)c1c(-c2ccc(OCC3CC3)cc2)[nH]c2c(C#N)cnn2c1=O [Example 268] | 23 | –
12 | CC(C)c1c(-c2cc(F)cc(NC(=O)OCc3ccccc3)c2)[nH]c2c(C#N)cnn2c1=O [Example 269] | 19 | –
13 | CC(C)c1c(-c2cccc(-n3cccn3)c2)[nH]c2c(C#N)cnn2c1=O [Example 270] | 13 | –
14 | CC(C)c1c(-c2cnn(C3CCCC3O)c2)[nH]c2c(C#N)cnn2c1=O (stereo not drawn) [Example 271] | 24 | –
15 | CNS(=O)(=O)c1cccc(-c2[nH]c3c(C#N)cnn3c(=O)c2C(C)C)c1 [Example 273] | 23 | –
16 | CC(C)c1c(-c2ccc(C(C)(C)O)cc2)[nH]c2c(C#N)cnn2c1=O [Example 274] | 73 | –
17 | CC(C)c1c(-c2ccnc(C(F)(F)F)c2)[nH]c2c(C#N)cnn2c1=O [Example 275] | 34 | –
18 | CC(C)c1c(-c2ccc(Oc3ccccc3)nc2)[nH]c2c(C#N)cnn2c1=O [Example 276] | 35 | –
19 | COc1cc(-c2[nH]c3c(C#N)cnn3c(=O)c2C(C)C)ccn1 [Example 277] | – | 32
20 | Cc1nc(-c2ccccc2)sc1-c1[nH]c2c(C#N)cnn2c(=O)c1C(C)C [Example 278] | 76 | –
21 | CC(C)c1c(-c2cc(N)cc(C#N)c2)[nH]c2c(C#N)cnn2c1=O [Example 279] | 24 | –

Row | Compound | IC50 [1] [nM] | IC50 [nM]
22 | CC(C)c1c(-c2cnn(C3CCOC3)c2)[nH]c2c(C#N)cnn2c1=O (stereo not drawn) [Example 280] | 15 | –
23 | CCNC(=O)c1cccc(-c2[nH]c3c(C#N)cnn3c(=O)c2C(C)C)c1 [Example 281] | 32 | –
24 | CC(C)c1c(-c2cccc(CC(N)=O)c2)[nH]c2c(C#N)cnn2c1=O [Example 282] | 8 | –
25 | CC(C)c1c(-c2ccc(-c3ccccc3)nc2)[nH]c2c(C#N)cnn2c1=O [Example 283] | 37 | –
26 | CC(C)c1c(-c2cnn(C3CCCOC3)c2)[nH]c2c(C#N)cnn2c1=O (stereo not drawn) [Example 285] | 23 | –
27 | COCC(C)n1cc(-c2[nH]c3c(C#N)cnn3c(=O)c2C(C)C)cn1 (stereo not drawn) [Example 286] | 30 | –
28 | CCOCCn1cc(-c2[nH]c3c(C#N)cnn3c(=O)c2C(C)C)cn1 [Example 287] | 22 | –
29 | CC(=O)N1CC=C(c2[nH]c3c(C#N)cnn3c(=O)c2C(C)C)C1 [Example 288] | 12 | –
30 | CC(=O)N1CCC=C(c2[nH]c3c(C#N)cnn3c(=O)c2C(C)C)C1 [Example 289] | 35 | –
31 | CCC(=O)N1CCC=C(c2[nH]c3c(C#N)cnn3c(=O)c2C(C)C)C1 [Example 290] | 39 | –
32 | CCC(=O)N1CC=C(c2[nH]c3c(C#N)cnn3c(=O)c2C(C)C)C1 [Example 291] | 55 | –
33 | CC(C)c1c(C2=CCNC2)[nH]c2c(C#N)cnn2c1=O [Example 293] | 19 | –
34 | CC(C)c1c(C2=CCCNC2)[nH]c2c(C#N)cnn2c1=O [Example 294] | 62 | –
35 | CC(C)c1c(C2=CCCN(C)C2)[nH]c2c(C#N)cnn2c1=O [Example 295] | 39 | –
36 | C=CC(=O)N1CCC=C(c2[nH]c3c(C#N)cnn3c(=O)c2C(C)C)C1 [Example 296] | 47 | –
37 | C=CC(=O)N1CC=C(c2[nH]c3c(C#N)cnn3c(=O)c2C(C)C)C1 [Example 297] | 28 | –
38 | Cc1cc(-c2[nH]c3c(C#N)cnn3c(=O)c2C(C)C)cc(C)c1Cl [Example 298] | 24 | –
39 | Cc1cc(-c2[nH]c3c(C#N)cnn3c(=O)c2C(C)C)ccc1C#N [Example 299] | 25 | –
40 | CC(C)c1c(-c2ccc3c(c2)CCC3=O)[nH]c2c(C#N)cnn2c1=O [Example 300] | 18 | –
41 | CC(C)c1c(-c2ccc(C(F)(F)F)c(C(F)(F)F)c2)[nH]c2c(C#N)cnn2c1=O [Example 301] | 170 | –
42 | Cc1cc(-c2[nH]c3c(C#N)cnn3c(=O)c2C(C)C)ccc1C(F)(F)F [Example 302] | 52 | –

Row | Compound | IC50 [1] [nM] | IC50 [nM]
43 | CC(C)c1c(-c2cnn(Cc3cccc4ccsc34)c2)[nH]c2c(C#N)cnn2c1=O [Example 303] | 15 | –
44 | CC(C)c1c(-c2ccc(F)c(C(=O)NC3CCCCC3)c2)[nH]c2c(C#N)cnn2c1=O [Example 304] | 52 | –
45 | CC(C)c1c(-c2ccc(N3CCOCC3)cc2)[nH]c2c(C#N)cnn2c1=O [Example 305] | 47 | –
46 | CC(C)c1c(-c2ccc(N3CCN(C(=O)OC(C)(C)C)CC3)cc2)[nH]c2c(C#N)cnn2c1=O [Example 306] | 200 | –
47 | Cc1cc(Cl)cc(-c2[nH]c3c(C#N)cnn3c(=O)c2C(C)C)c1 [Example 307] | 25 | –
48 | CC(C)c1c(-c2cccc(S(C)(=O)=O)c2)[nH]c2c(C#N)cnn2c1=O [Example 308] | 17 | –
49 | CC(C)c1c(-c2ccc(NS(C)(=O)=O)cc2)[nH]c2c(C#N)cnn2c1=O [Example 309] | 37 | –
50 | CC(C)c1c(-c2ccc(CN3CCOCC3)cc2)[nH]c2c(C#N)cnn2c1=O [Example 310] | 19 | –
51 | CC(C)c1c(-c2cccc(N3CCOCC3)c2)[nH]c2c(C#N)cnn2c1=O [Example 311] | 28 | –
52 | CC(C)c1c(-c2ccc(Oc3ccccc3)cc2)[nH]c2c(C#N)cnn2c1=O [Example 312] | 28 | –
53 | C=CC(=O)NCCn1cc(-c2[nH]c3c(C#N)cnn3c(=O)c2C(C)C)cn1 [Example 313] | 18 | –
54 | CC(C)c1c(-c2cnn(CCN)c2)[nH]c2c(C#N)cnn2c1=O [Example 314] | 5.2 | –
55 | Cc1ccc(-c2[nH]c3c(C#N)cnn3c(=O)c2C(C)C)cc1C1CC1 [Example 315] | 24 | –
56 | CCOc1cccc(-c2[nH]c3c(C#N)cnn3c(=O)c2C(C)C)c1 [Example 316] | 34 | –
57 | CC(C)c1c(-c2cccc(CO)c2)[nH]c2c(C#N)cnn2c1=O [Example 317] | 25 | –
58 | CC(C)c1c(-c2cnn(CCNC(=O)OC(C)(C)C)c2)[nH]c2c(C#N)cnn2c1=O [Example 318] | 21 | –
59 | CC(C)c1c(-c2cccc(OCCc3ccccc3)c2)[nH]c2c(C#N)cnn2c1=O [Example 319] | 46 | –
60 | CC(C)c1c(C2=CCNCC2)[nH]c2c(C#N)cnn2c1=O [Example 320] | 20 | –
61 | C=CS(=O)(=O)NCCn1cc(-c2[nH]c3c(C#N)cnn3c(=O)c2C(C)C)cn1 [Example 321] | 23 | –
62 | CC(C)c1c(-c2ccc(Nc3ccccc3)cc2)[nH]c2c(C#N)cnn2c1=O [Example 322] | 10 | –
63 | Cc1n[nH]cc1-c1[nH]c2c(C#N)cnn2c(=O)c1C(C)C [Example 323] | 31 | –

Row | Compound | IC50 [1] [nM] | IC50 [nM]
64 | CC(C)c1c(-c2ccc(OCc3ccccc3)cc2)[nH]c2c(C#N)cnn2c1=O [Example 324] | 26 | –
65 | CC(C)c1c(-c2cc(F)cc(F)c2)[nH]c2c(C#N)cnn2c1=O [Example 325] | 19 | –
66 | CC(C)c1c(-c2cc(F)cc(C(F)(F)F)c2)[nH]c2c(C#N)cnn2c1=O [Example 326] | 14 | –
67 | CCS(=O)(=O)c1cccc(-c2[nH]c3c(C#N)cnn3c(=O)c2C(C)C)c1 [Example 327] | 48 | –
68 | CC(C)c1c(-c2cccc(OC(F)(F)F)c2)[nH]c2c(C#N)cnn2c1=O [Example 328] | 30 | –
69 | CC(C)c1c(-c2cnn(Cc3cncs3)c2)[nH]c2c(C#N)cnn2c1=O [Example 329] | 11 | –
70 | Cc1ccc(-c2[nH]c3c(C#N)cnn3c(=O)c2C(C)C)cc1 [Example 330] | 23 | –
71 | CC(C)c1c(-c2ccc(C3CC3)cc2)[nH]c2c(C#N)cnn2c1=O [Example 331] | 27 | –
72 | CCS(=O)(=O)c1ccc(-c2[nH]c3c(C#N)cnn3c(=O)c2C(C)C)cc1 [Example 332] | 20 | –
73 | C=Cc1cccc(Cn2cc(-c3[nH]c4c(C#N)cnn4c(=O)c3C(C)C)cn2)n1 [Example 333] | 12 | –
74 | CC(C)c1c(-c2ccc(OCc3ccccc3)nc2)[nH]c2c(C#N)cnn2c1=O [Example 334] | 25 | –
75 | CC(C)c1c(C2=CCN(C(=O)OC(C)(C)C)C2)[nH]c2c(C#N)cnn2c1=O [Example 335] | 60 | –
76 | CC(C)c1c(-c2cnn(C(CO)c3ccccc3)c2)[nH]c2c(C#N)cnn2c1=O (stereo not drawn) [Example 336] | 32 | –
77 | CC(C)c1c(-c2cnn(C(CC#N)c3ccccc3)c2)[nH]c2c(C#N)cnn2c1=O (stereo not drawn) [Example 337] | 25 | –
78 | CC(C)c1c(-c2ccc(C3CC3)nc2)[nH]c2c(C#N)cnn2c1=O [Example 338] | 34 | –
79 | COc1cc(-c2[nH]c3c(C#N)cnn3c(=O)c2C(C)C)ccc1C#N [Example 339] | 33 | –
80 | COc1ccc(-c2[nH]c3c(C#N)cnn3c(=O)c2C(C)C)cc1C(F)(F)F [Example 340] | 31 | –
81 | CC(C)c1c(-c2ccc(Cl)cc2)[nH]c2c(C#N)cnn2c1=O [Example 341] | – | 21
82 | CC(C)c1c(-c2cnn(Cc3ccc(F)c(F)c3)c2)[nH]c2c(C#N)cnn2c1=O [Example 342] | 9 | –
83 | Cc1ccc(-c2[nH]c3c(C#N)cnn3c(=O)c2C(C)C)cc1C(F)(F)F [Example 343] | 36 | –
84 | CC(C)c1c(-c2ccc(C(=O)N3CCCC3)cc2)[nH]c2c(C#N)cnn2c1=O [Example 344] | 93 | –
